Key:
[1] = biological target: T1, Human GLP-1 receptor (Homo sapiens, UniProt P43220); assay: In vitro Human GLP-1 R agonist activity (cyclic AMP determination) in CHO/human GLP1R cells; format: cell-based
T1 construct: The full-length cDNA was cloned in pcDNA3.1(+); expressed in transfected cells

[2] = biological target: T2, human glucagon receptor (Homo sapiens, UniProt P47871); assay: In vitro human glucagon antagonist activity (inhibition of cAMP production) in CHO/human glucagon R cells; format: cell-based; settings: with saturated concentration of glucagon peptide
T2 construct: The full-length cDNA was cloned in pcDNA3.1 (Invitrogen); expressed in transfected cells

[3] = biological target: DPP IV (Homo sapiens, UniProt P27487); assay: Stability against DPP IV enzyme; format: in vitro ADME; settings: 37° C.; for % degradation of peptidomimetics in 24 h when incubated with DPP-IV enzyme: 2 μM peptidomimetic; for half-life at 2 μM: DPP IV enzyme, pH 7.8, 2 μM peptidomimetic, read-out: half-life (t1/2) when incubated with DPP-IV enzyme
Method: (§1) Reactions were terminated by the addition of TFA/H2O (15 mL, 10% (v/v)). […] The column was equilibrated with TFA/H20, at a flow rate of 1 mL/min.

[4] = Stability in human plasma; format: in vitro ADME; settings: 2 μM peptidomimetic, pooled human plasma, 37° C.; for half-life at 2 μM: pH 7.8, read-out: half-life (t1/2) when incubated with human plasma
Method: as §1

[5] = Stability in simulated gastric fluid; format: in vitro ADME; settings: 2 μM peptidomimetic, simulated gastric fluid pH 1.5, 37° C.
Method: as §1

[6] = Stability in simulated intestinal fluid; format: in vitro ADME; settings: 2 μM peptidomimetic, simulated intestinal fluid pH 7.5, 37° C.
Method: as §1

[7] = Stability in liver microsomes; format: in vitro ADME; settings: 2 μM peptidomimetic, human liver microsomes, 37° C.; for half-life at 2 μM: pH 7.8, read-out: half-life (t1/2) when incubated with liver microsomes
Method: as §1

Chain of DPP IV (P27487 whole entry, species assumed): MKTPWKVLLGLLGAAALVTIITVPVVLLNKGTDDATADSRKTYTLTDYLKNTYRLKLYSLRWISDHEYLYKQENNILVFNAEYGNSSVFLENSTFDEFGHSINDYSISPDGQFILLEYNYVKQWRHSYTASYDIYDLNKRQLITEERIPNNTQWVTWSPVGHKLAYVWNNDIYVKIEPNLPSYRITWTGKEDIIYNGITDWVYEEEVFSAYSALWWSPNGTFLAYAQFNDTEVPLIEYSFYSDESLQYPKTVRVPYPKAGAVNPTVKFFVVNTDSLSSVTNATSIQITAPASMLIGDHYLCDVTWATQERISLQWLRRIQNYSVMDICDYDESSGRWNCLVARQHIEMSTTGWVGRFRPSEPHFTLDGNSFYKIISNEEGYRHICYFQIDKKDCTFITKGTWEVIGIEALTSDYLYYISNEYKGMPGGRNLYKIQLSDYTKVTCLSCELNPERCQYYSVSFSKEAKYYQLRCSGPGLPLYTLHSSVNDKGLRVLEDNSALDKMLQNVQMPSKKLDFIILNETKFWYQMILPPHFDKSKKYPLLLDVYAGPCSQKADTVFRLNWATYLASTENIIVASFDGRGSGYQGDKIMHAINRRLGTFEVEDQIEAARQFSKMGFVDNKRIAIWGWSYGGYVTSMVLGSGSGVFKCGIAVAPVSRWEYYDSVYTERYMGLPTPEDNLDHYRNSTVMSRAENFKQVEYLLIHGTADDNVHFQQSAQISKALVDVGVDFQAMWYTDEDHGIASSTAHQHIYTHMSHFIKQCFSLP
T1 sequence (P43220 24-463): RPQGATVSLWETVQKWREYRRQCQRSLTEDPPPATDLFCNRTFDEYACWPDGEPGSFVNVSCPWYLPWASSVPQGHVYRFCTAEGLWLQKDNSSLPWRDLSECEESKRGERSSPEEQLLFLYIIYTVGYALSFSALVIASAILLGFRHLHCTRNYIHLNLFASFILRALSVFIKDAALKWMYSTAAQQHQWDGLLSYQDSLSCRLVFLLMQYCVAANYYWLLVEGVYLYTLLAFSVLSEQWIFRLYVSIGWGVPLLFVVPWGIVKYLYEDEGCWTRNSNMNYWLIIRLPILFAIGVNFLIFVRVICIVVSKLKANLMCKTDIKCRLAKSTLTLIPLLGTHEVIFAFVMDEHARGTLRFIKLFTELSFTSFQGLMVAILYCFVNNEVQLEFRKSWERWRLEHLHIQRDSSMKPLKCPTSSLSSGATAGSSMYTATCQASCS
T2 sequence (P47871 26-477): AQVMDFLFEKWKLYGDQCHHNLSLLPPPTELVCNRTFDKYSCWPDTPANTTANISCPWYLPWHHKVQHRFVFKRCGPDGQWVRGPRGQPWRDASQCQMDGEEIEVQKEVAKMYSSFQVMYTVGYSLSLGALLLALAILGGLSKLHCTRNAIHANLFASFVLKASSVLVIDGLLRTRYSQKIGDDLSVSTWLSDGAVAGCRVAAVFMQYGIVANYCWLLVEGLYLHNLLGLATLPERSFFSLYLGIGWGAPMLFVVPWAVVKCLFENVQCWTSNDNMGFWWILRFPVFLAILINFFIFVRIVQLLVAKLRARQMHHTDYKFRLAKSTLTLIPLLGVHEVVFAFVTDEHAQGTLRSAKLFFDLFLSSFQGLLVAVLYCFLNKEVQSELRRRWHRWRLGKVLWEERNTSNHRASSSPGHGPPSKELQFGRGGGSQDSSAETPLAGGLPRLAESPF

| SMILES | Human GLP-1 R activity (cAMP release), % activity with respect to control ([1]; 1 nM test compound) | Human GLP-1 R activity (cAMP release), % activity with respect to control ([1]; 10 nM test compound) | Human GLP-1 R activity (cAMP release), % activity with respect to control ([1]; 100 nM test compound) | Human GLP-1 R activity (cAMP release), % activity with respect to control ([1]; 1 μM test compound) | Human GLP-1 R activity (cAMP release), % activity with respect to control ([1]; 10 μM test compound) | Human Glucagon receptor antagonistic activity shown as inhibition of cAMP production of Glucagon peptide ([2]; 1 nM test compound) | Human Glucagon receptor antagonistic activity shown as inhibition of cAMP production of Glucagon peptide ([2]; 10 nM test compound) | Human Glucagon receptor antagonistic activity shown as inhibition of cAMP production of Glucagon peptide ([2]; 100 nM test compound) | Human Glucagon receptor antagonistic activity shown as inhibition of cAMP production of Glucagon peptide ([2]; 1 μM test compound) | Human Glucagon receptor antagonistic activity shown as inhibition of cAMP production of Glucagon peptide ([2]; 10 μM test compound) | % degradation of peptidomimetics in 24 h when incubated with DPP-IV enzyme [3] | half-life at 2 μM [3] | % degradation of peptidomimetics in 24 h when incubated with human plasma [4] | half-life at 2 μM [4] | half-life (t1/2) when incubated with simulated gastric fluid [5] | % degradation of peptidomimetics in 24 h when incubated with simulated gastric fluid [5] | half-life (t1/2) when incubated with simulated intestinal fluid [6] | % degradation of peptidomimetics in 24 h when incubated with simulated intestinal fluid [6] | % degradation of peptidomimetics in 24 h when incubated with liver microsomes [7] | half-life at 2 μM [7] | also measured |
| --- | --- | --- | --- | --- | --- | --- | --- | --- | --- | --- | --- | --- | --- | --- | --- | --- | --- | --- | --- | --- | --- |
| CCc1cc(OC)ccc1-c1ccc(CC(NC(=O)[C@H](CC(=O)O)NC(=O)[C@H](CO)NC(=O)[C@@H](NC(=O)[C@H](Cc2ccccc2)NC(=O)[C@@H](NC(=O)CNC(=O)[C@H](CCC(N)=O)NC(=O)C(C)(C)NC(=O)[C@@H](N)Cc2c[nH]cn2)[C@@H](C)O)[C@@H](C)O)C(=O)NC(CCCc2cccc(Cl)c2)C(N)=O)cc1 (single isomer, unassigned) [compound 19] | 99 ± 0.12% | 99 ± 0.08% | 99 ± 0.11% | 99 ± 0.12% | 99 ± 0.16% | 0 pmol/ml/μg prt | 0 pmol/ml/μg prt | 0 pmol/ml/μg prt | 0 pmol/ml/μg prt | 0 pmol/ml/μg prt | 86% | 9 h | 70% | 8 h | (8) h | 15% | (6) h | 41% | 77% | 1 h |  |
| CCc1cc(OC)ccc1-c1ccc(CC(NC(=O)[C@H](CC(=O)O)NC(=O)[C@H](CO)NC(=O)[C@@H](NC(=O)[C@H](Cc2ccccc2)NC(=O)[C@@H](NC(=O)CNC(=O)[C@H](CCC(N)=O)NC(=O)C2(NC(=O)[C@@H](N)Cc3c[nH]cn3)CC2)[C@@H](C)O)[C@@H](C)O)C(=O)NC(CCCc2ccc(F)cc2C(F)(F)F)C(N)=O)cc1 (single isomer, unassigned) [compound 72] | 45 ± 0.022% | 84 ± 0.46% | 90 ± 0.41% | 99 ± 0.66% | 99 ± 0.03% | 9 ± 0.11 pmol/ml/μg prt | 6 ± 0.12 pmol/ml/μg prt | 5 ± 0.14 pmol/ml/μg prt | 3 ± 0.22 pmol/ml/μg prt | 0 pmol/ml/μg prt | 86% | 9 h | 70% | 8 h | (8) h | 15% | (6) h | 41% | 77% | 1 h |  |
| CCc1cc(OC)ccc1-c1ccc(CC(C(=O)N(C)C(CCCc2ccccc2F)C(N)=O)N(C)C(=O)[C@H](CC(=O)O)NC(=O)[C@H](CO)NC(=O)[C@@H](NC(=O)C(C)(Cc2ccccc2F)NC(=O)[C@@H](NC(=O)CNC(=O)C(CCC#N)NC(=O)C(C)(C)NC(=O)[C@@H](N)Cc2c[nH]cn2)[C@H](C)O)[C@H](C)O)cc1 (single isomer, unassigned) [compound 144] | 55 ± 0.16% | 89 ± 0.05% | 93 ± 0.09% | 99 ± 0.02% | 99 ± 0.04% | 5 ± 0.09 pmol/ml/μg prt | 3 ± 0.11 pmol/ml/μg prt | 0 pmol/ml/μg prt | 0 pmol/ml/μg prt | 0 pmol/ml/μg prt | 76% | 9 h | 78% | 8 h | (8) h | 14% | (6) h | 43% | 80% | 1 h |  |
| CCc1cc(OC)ccc1-c1ccc(CC(NC(=O)[C@H](CC(=O)O)NC(=O)[C@H](CO)NC(=O)[C@@H](NC(=O)C(C)(Cc2ccccc2F)NC(=O)[C@@H](NC(=O)CNC(=O)[C@H](CC(C(F)(F)F)C(F)(F)F)NC(=O)C(C)(C)NC(=O)[C@@H](N)Cc2c[nH]cn2)[C@@H](C)O)[C@H](C)O)C(=O)NC(CCCc2ccccc2F)C(N)=O)cc1 (single isomer, unassigned) [compound 224] | 99 ± 0.06% | 99 ± 0.06% | 99 ± 0.08% | 99 ± 0.10% | 99 ± 0.12% |  |  |  |  |  | 00% | > 24 h | 00% | > 24 h |  | 00% |  | 00% | 26% |  | half-life at 2 μM ([5]; read-out: half-life (t1/2) when incubated with simulated gastric fluid): > 24 h; half-life at 2 μM ([6]; read-out: half-life (t1/2) when incubated with simulated intestinal fluid): > 24 h; half-life (t1/2) when incubated with liver microsomes [7]: (5) h |
